ChEMBL document CHEMBL4414606, “Bioactive Streptoglutarimides A-J from the Marine-Derived Streptomyces sp. ZZ741” (J Nat Prod, 2019)
Converted amounts (≈) assume the structure as drawn.

Tests used:
U-251 = test: Antiproliferative activity against human U251 cells assessed as reduction in cell viability after 72 hrs by SRB assay; assay type: functional, cell-based
Staphylococcus aureus = test: Antibacterial activity against methicillin resistant Staphylococcus aureus assessed as reduction in bacterial growth incubated for 12 hrs by microdilution method; assay type: functional
U-87 MG = test: Antiproliferative activity against human U87MG cells assessed as reduction in cell viability after 72 hrs by SRB assay; assay type: functional, cell-based, U-87MG ATCC
Escherichia coli = test: Antibacterial activity against Escherichia coli assessed as reduction in bacterial growth incubated for 12 hrs by microdilution method; assay type: functional
Candida albicans = test: Antifungal activity against Candida albicans assessed as reduction in fungal growth incubated for 12 hrs by microdilution method; assay type: functional
[1] = Homo sapiens, U-251, 72 h, read-out: IC50
[2] = Homo sapiens, U-87 MG, 72 h, read-out: IC50

Row | Molecule | IC50 (U-251; u-251) | MIC (Staphylococcus aureus) [µg/mL] | IC50 (U-87 MG; u-87mg atcc) | MIC (Escherichia coli) [µg/mL] | MIC (Candida albicans) [µg/mL] | IC50 (U-251; [1]) [nM] | IC50 (U-87 MG; [2]) [nM]
1 | C[C@H]1C[C@H]([C@H](O)CC2CC(=O)NC(=O)C2)C(=O)[C@@](C)(O)C1 | Not Active | 11 (≈ 37 µM) | Not Active | 9 (≈ 30.3 µM) | 12 (≈ 40.4 µM) |  | 
2 | C[C@@H]1C[C@@H]([C@H](O)CC2CC(=O)NC(=O)C2)C(=O)[C@@H](C)[C@@H]1O |  | 9 (≈ 30.3 µM) |  | 10 (≈ 33.6 µM) | 15 (≈ 50.4 µM) | 1500 | 3800
3 | C[C@H]1C[C@@](C)(O)C[C@@H]([C@H](O)CC2CC(=O)NC(=O)C2)C1=O |  | 10 (≈ 33.6 µM) |  | 10 (≈ 33.6 µM) | 18 (≈ 60.5 µM) | 50 | 220
4 | COc1cccc2c1C(=O)c1c(O)c3c(c(O)c1C2=O)C[C@@](O)(C(=O)CO)C[C@@H]3O[C@H]1C[C@H](N)[C@H](O)[C@H](C)O1 [DOXORUBICIN] |  |  |  |  |  | 6800 | 1600
5 | C[C@@H]1C[C@@](C)(CO)O/C1=C\C(=O)CC1CC(=O)NC(=O)C1 | Not Active | 11 (≈ 37.2 µM) | Not Active | 9 (≈ 30.5 µM) | 20 (≈ 67.7 µM) |  | 
6 | CN[C@H](CC(C)C)C(=O)N[C@H]1C(=O)N[C@@H](CC(N)=O)C(=O)N[C@H]2C(=O)N[C@H]3C(=O)N[C@H](C(=O)N[C@H](C(=O)O)c4cc(O)cc(O)c4-c4cc3ccc4O)[C@H](O)c3ccc(c(Cl)c3)Oc3cc2cc(c3O[C@@H]2O[C@H](CO)[C@@H](O)[C@H](O)[C@H]2O[C@H]2C[C@](C)(N)[C@H](O)[C@H](C)O2)Oc2ccc(cc2Cl)[C@H]1O [VANCOMYCIN] |  | 0.2 (≈ 0.138 µM) |  |  |  |  | 
7 | C[C@@H]1C[C@](C)(CO)O/C1=C\C(=O)CC1CC(=O)NC(=O)C1 | Not Active | 9 (≈ 30.5 µM) | Not Active | 9 (≈ 30.5 µM) | 16 (≈ 54.2 µM) |  | 
8 | C[C@H](CO)C[C@@]1(C)OC(CC2CC(=O)NC(=O)C2)=CC1=O | Not Active | 10 (≈ 33.9 µM) | Not Active | 8 (≈ 27.1 µM) | 8 (≈ 27.1 µM) |  | 
9 | C[C@@H]1[C@H](O)[C@@H](C)/C=C/C=C/C=C/C=C/C=C/C=C/C=C/[C@H](O[C@@H]2O[C@H](C)[C@@H](O)[C@H](N)[C@@H]2O)C[C@@H]2O[C@](O)(C[C@@H](O)C[C@@H](O)[C@H](O)CC[C@@H](O)C[C@@H](O)CC(=O)O[C@H]1C)C[C@H](O)[C@H]2C(=O)O [AMPHOTERICIN B] |  |  |  |  | 0.75 (≈ 0.812 µM) |  | 
10 | C[C@@H]1C/C(=C/CC2CC(=O)NC(=O)C2)C(=O)[C@@H](C)[C@@H]1O | Not Active | 10 (≈ 35.8 µM) | Not Active | 10 (≈ 35.8 µM) | 18 (≈ 64.4 µM) |  | 
11 | C[C@H](CO)[C@@H]1OC(CC2CC(=O)NC(=O)C2)=CC(=O)[C@H]1C | Not Active | 10 (≈ 33.9 µM) | Not Active | 12 (≈ 40.6 µM) | 18 (≈ 60.9 µM) |  | 
12 | C[C@H](CO)C[C@@]1(C)OC(CC2(O)CC(=O)NC(=O)C2)=CC1=O | Not Active | 9 (≈ 28.9 µM) | Not Active | 10 (≈ 32.1 µM) | 20 (≈ 64.2 µM) |  | 
13 | CC1=C[C@@](C)(CO)O/C1=C\C(=O)CC1CC(=O)NC(=O)C1 | Not Active | 10 (≈ 34.1 µM) | Not Active | 8 (≈ 27.3 µM) | 15 (≈ 51.1 µM) |  | 
14 | GENTAMICIN |  |  |  | 1.25 |  |  | 
15 | C[C@](O)(CO)C[C@@]1(C)OC(CC2CC(=O)NC(=O)C2)=CC1=O | Not Active | 10 (≈ 32.1 µM) | Not Active | 12 (≈ 38.5 µM) | 18 (≈ 57.8 µM) |  | 
